Experimental data from US6271266A (Takeda Chemical Industries, Ltd., priority 1996, dated 2001).

Key:
rat hippocampal neurons [1] = assay: LDH leakage from cultured rat hippocampal neurons exposed to Aβ1-40; type: cell-based
Experimental: (§1) The cultured rat hippocampal neurons were prepared by the following procedure.
From the 18-day viviparous SD rat brain, the hippocampus was isolated on ice and treated with 0.25% trypsin and 0.1 mg/ml deoxyribonuclease I in Hank's solution at 37° C. for 10 minutes. The enzyme-treated cells were collected with a filter and suspended in Eagle's MEM containing 50 U/ml penicillin, 50 μg/ml streptomycin, 10% fetal calf serum, and 1% B27 Supplement (GIBCO). The suspension was diluted and seeded on a 48-well plate (COSTAR) precoated with poly-L-lysine, 100,000 cells/300 μl/well. Culture was carried out in the presence of 5% carbon dioxide gas at 37° C. […] On day 7 of culture, the medium was further replaced with MEM-N2 containing Aβ1-40 (Bachem) and the test drug, and the efficacy of the drug against the toxicity of Aβ1-40 was evaluated.
(§2) The lactate dehydrogenase (LDH) activity released extracellularly from the injured cells into the medium was assayed over 3-5 days after treatment and the toxicity was evaluated using the assayed activity as an indicator. In addition, on day 4 after addition of the drug, the cells were fixed with 4% paraformaldehyde, stained with anti-MAP2 antibody (Amersham) and randomly photographed under the microscope, and the number of neurons per visual field was counted.

rat hippocampal neurons [2] = assay: Number of viable neurons (anti-MAP2 staining) after Aβ1-40; type: cell-based; conditions: Aβ1-40 10 μM, day 4 after addition, FIG. 3
Experimental: as §1
From the 18-day viviparous SD rat brain, the hippocampus was isolated on ice and treated with 0.25% trypsin and 0.1 mg/ml deoxyribonuclease I in Hank's solution at 37° C. for 10 minutes. The enzyme-treated cells were collected with a filter and suspended in Eagle's MEM containing 50 U/ml penicillin, 50 μg/ml streptomycin, 10% fetal calf serum, and 1% B27 Supplement (GIBCO). The suspension was diluted and seeded on a 48-well plate (COSTAR) precoated with poly-L-lysine, 100,000 cells/300 μl/well. Culture was carried out in the presence of 5% carbon dioxide gas at 37° C. On day 4 of culture, the medium was replaced with Eagle's MEM (MEM-N2) containing 50 U/ml penicillin, 50 μg/ml streptomycin, 10 mM HEPES-Na (pH 7.3) and N2 Supplement. On day 7 of culture, the medium was further replaced with MEM-N2 containing Aβ1-40 (Bachem) and the test drug, and the efficacy of the drug against the toxicity of Aβ1-40 was evaluated.
as §2

[3] = system: patients with Alzheimer's disease; conditions: 90 mg or 120 mg 3 times a day (270 or 360 mg per day), 6 months; cited from earlier work
[4] = system: Alzheimer type senile dementia; conditions: cited from earlier work
[5] = system: rat retinal neuron-neuroblastoma hybrid N18-RE-105 cells; conditions: cited from earlier work
cultured nerve cells = conditions: cited from earlier work

Aβ1-40: β-amyloid protein 1-40 (Bachem)
leakage of LDH activity into the medium (toxicity) (rat hippocampal neurons [1]; 3-5 days after addition of Aβ1-40, FIG. 1): dose-dependent toxicity | number of neurons (rat hippocampal neurons [2]): decline in the number of neurons

COC1=C(OC)C(=O)C(CCCCCCCCCCO)=C(C)C1=O [idebenone, 6-(10-hydroxydecyl)-2,3-dimethoxy-5-methyl-1,4-benzoquinone]
release of LDH (rat hippocampal neurons [1]; idebenone 100 nM, Aβ1-40 10 μM, 3-5 days following addition, FIG. 2): suppressed the release of LDH | GOT time course [3]: the changes were small with substantially no difference from the control values | GPT time course [3]: the changes were small with substantially no difference from the control values | neuronal death (rat hippocampal neurons [2]; idebenone 100 nM): inhibited neuronal death significantly | number of viable cells (rat hippocampal neurons [2]; idebenone 100 nM, anti-MAP2 antibody): approximately equal to the number of viable cells in the control group | efficacy in Alzheimer type senile dementia ([4]; 90 mg daily to adult patients): efficacy | clinical effect in Alzheimer type senile dementia ([4]; high doses (270 mg-360 mg day per adult)): clinically effective | glutamate-induced neuronal death [5]: suppresses glutamate-induced neuronal death | neuroprotection / reactive oxygen species scavenging [5]: exerts the neuroprotection by the reactive oxygen species scavenging activity

β-amyloid
neuronal toxicity (cultured nerve cells): shows neuronal toxicity
